The subject of one assay is human neutrophils (PMN). Description: Cholesterol-mediated Ca2+ influx in human PMN (fura-2 calcium spectrofluorometry). Format: cell-based. Particulars: for effect on cholesterol mediated Ca2+ influx (actin reorganization): Caly A 50 nM in cuvette, Cyto D pretreatment 2.5 uM 15 min, cholesterol 10 ug/ml; for effect of calcium channel blocker on cholesterol-mediated PMN calcium entry: dose response curves not shown.

For assay [1], the system named is PMN. In words: Store-operated calcium entry (SOCE) initiated by fMLP and Tg in PMN. Format: cell-based, human. How it is done: We hypothesized that calcium-entry dependent functions like RB would depend upon S1P synthesis and subsequent S1P interactions with rafts. Thus we developed a calcium-entry dependent RB model where Ca entry was manipulated by sphingosine kinase (SphK) inhibition, which inhibits S1P synthesis in response to internal calcium store release. […] Note that the vast majority of cell [Ca^2+] increases are due to calcium influx on re-calcifying the medium.
(§1) PMN were suspended in HEPES buffer with 1 mM CaCl2 and 0.1% BSA and incubated with 2 μg/mL fura-2AM for 30 minutes in the dark at 37° C. Cells were divided into aliquots (2×10^6 PMN) and placed on ice in the dark. Prior to study, samples were warmed to 37°, centrifuged (4500 RPM, 5 sec) and supernatants removed. Pellets were resuspended in 200 μl of BSA-free and ‘nominally calcium-free’ HEPES buffer (with 0.3 mM EGTA) and finally injected into cuvettes containing 2.8 mL of the same buffer for study. Intracellular free calcium concentration ([Ca2+]i) was determined from the fluorescence at 505 nm using 340/380 nm dual wavelength excitation. (Fluoromax-2, Jobin-SPEX, Edison, N.J.).

The test system of another assay is PMN lipid raft fractions. Description: Cholesterol content of PMN lipid raft fractions isolated by ultracentrifugation. The format is cell-based, human. Particulars: for ratio of cholesterol to protein / cholesterol concentration in the lowest density raft fractions: PMN pretreated, micromolar concentrations, absence of albumin; for change of cholesterol in raft fractions versus higher density fractions: cholesterol 10 μg/ml 10 minutes or MβCD 10 μM/10 min.

In assay [2] the test system is PMN. In words: Calcium-entry dependent respiratory burst (RB) initiated by fMLP/Tg in PMN. Format: cell-based, human. The conditions noted are these: for effect of cholesterol depletion on fMLP/Tg RB: MBCD 10 mM/10 min, fMLP/TG 100 nM/1 uM.
Procedure: The graph represents Vmax slopes values. n=2 for Blank, Cholesterol Blank and Cholesterol alone. The others are n=6.
RB was assessed in PMN suspensions. Briefly, 2×10^6 PMN were suspended in 3 ml of HEPES buffer with 0.1% BSA and 15 ng/ml of 1,2,3-dihydrorhodamine (DHR) added. Cells were studied at 37° C. with constant stirring using excitation at 488 nm and emission at 530 nm. RB was allowed to become linear and achieve maximal reaction rate (Vmax). The fluorescent intensity (FI) curve of oxidized DHR was compiled for 60 seconds during Vmax. Curve-fitting analysis was performed over the linear portion (Sigma-Plot 4.0, SPSS, Chicago, Ill.). Vmax was assessed as the first derivative of the fluorescent intensity in counts per second (CPS).
Next we evaluated the functional relevance of cholesterol-mediated Ca^2+ influx. We studied a PMN model where RB depends entirely on extra-cellular calcium entry to see if RB would vary with the incorporation of cholesterol into rafts.
To do this, PMN were pre-incubated with MβCD, with vehicle or with varying concentrations of cholesterol to vary membrane raft cholesterol content (FIG. 21B). After the pre-incubation, RB was initiated using fMLP/Tg.
Assay [3] relates to PMN. Description: fMLP-mediated Ca2+ entry in PMN. The format is cell-based, human. As for the experimental part:
as §1
To confirm that the effects of cholesterol on GPCR mediated Ca^2+ entry were generalized and not restricted to PAF we evaluated the effects of cholesterol on fMLP-mediated Ca^2+ entry. Consistent with PAF, fMLP-linked Ca^2+ entry responses were suppressed by MβCD and augmented by cholesterol (FIG. 23, upper panel).

Assay [4] deals with PMN. In words: Thapsigargin (TG) initiated Ca2+ entry in PMN. Format: cell-based, human. As for the experimental part: as §1
Since cholesterol had no discernable effect on ER Ca^2+ store release in response to PAF we examined the possibility that could play a direct role in the regulation of store-operated Ca^2+ entry; a Ca^2+ entry mechanism that is completely independent of GPCR activation. To study this we used thapsigargin (TG). TG blocks ER Ca^2+ ATPase pumps, thus depleting ER Ca^2+ stores directly and causing calcium entry independent of GPCR activation.

The next assay has as its system human PMN. In words: PAF mediated SOCE in human PMN. Format: cell-based.
Another assay deals with TRPC1. Description: Western blotting for TRPC1 in PMN raft fractions. The format is cell-based, human. The conditions noted are these: for global TRPC1 protein expression in whole cell lysates: 10 minutes exposure. How it is done:
TRPC1 is a prototypic calcium channel protein of the TRP family. PMN express multiple TRPC proteins that are known to traffic to the cell membrane during Ca entry. We therefore studied TRPC1 raft-trafficking in response to cholesterol as an initial proof of principle that raft cholesterol concentration might regulate the distribution of multiple Ca^2+-influx related proteins to or from the cell membrane. We analyzed 20 μl of each gradient fraction by electrophoresis on a SDS gel followed by Western blotting for TRPC1 protein. The primary rabbit anti-human TRPC1 antibody (Santa Cruz) was used at 1:1,600 dilution. Secondary goat anti-rabbit antibody was used at 1:16,000 dilution. An ECL Western blotting detection kit was used to develop the blots which were imaged as above.
We therefore used Western blots to probe for TRPC1 in fractions 2-4 of pooled normal volunteer PMN fractionated with or without prior incubation in 10 μg/mL cholesterol (FIG. 26).
Subsequently, we sought to determine the source of the increased TRPC1 in the lipid raft fractions. Whole cell lysates from cholesterol treated and untreated cells were compared (not shown). […] Since the events leading to calcium entry are very rapid, later time points were not studied. Finally, we assayed TRPC1 in individual raft fractions from concurrently treated and analyzed PMN specimens (FIG. 27). […] Thus a redistribution of TRPC1 occurs in response to cholesterol treatment which appears to reflect trafficking of the protein to raft fractions rather than de novo synthesis.
In general terms: A western blot detects proteins with antibodies after separation by electrophoresis.

The subject of a further assay is PMN lipid rafts (GM-1). In words: Immunofluorescent microscopy for GM-1 (FITC-CTB) in PMN rafts. Format: cell-based, human. The conditions noted are these: free cholesterol 10 μg/mL.
Assay [5] concerns PMN. Description: PMN calcium entry responses to S1P. The format is cell-based, human. As for the experimental part:
To evaluate whether Ca^2+-entry responses to S1P were raft dependent, we then disrupted lipid rafts using MBCD to bind raft cholesterol.
as §1

[6] abbreviates: fMLP/Tg RB after pre-incubation.

The values that follow come from patent publication US7879821B2, “Method for modulating inflammatory responses by altering plasma lipid levels” (University of Medicine and Dentistry of New Jersey, priority 2006, dated 2011).

pIC50: −log10 of the molar value. Entries after “also recorded” stand apart in the source; their conditions may differ.

Procedure for PMN lipid raft fractions: Lipid raft fractions were isolated by ultracentrifugation from PMN treated with S1P, cholesterol or buffer only (“none”). […] After isolation from 2-3 normal volunteer donors, 5×10^7 PMN were divided into aliquots. Aliquots were treated at 37° C. with 10 μg/ml water-soluble cholesterol for 10 minutes, MβCD (10 μM/10 min) or with vehicle. All steps thereafter were performed on ice. Cells were spun and pellets resuspended in 1 ml of base buffer (20 mM Tris-HCl pH 7.8, 250 mM Sucrose, 1 mM CaCl2 and 1 mM MgCl2) containing protease inhibitor and 50 μg/ml calpain inhibitor 1. Cells were disrupted by passage through a 22 g 3″ needle 10 times. Fragmented cells were sonicated 5×20 s, cooling the cells on ice between sonications. […] The cell pellets were resuspended in 1 ml base buffer with inhibitors and the sonication repeated. The two postnuclear supernatants were combined and an equal volume of 50% Optiprep added. […] Tubes were then centrifuged (52,000 g; 3 hours) and serial 670 μl fractions were collected from the top of the tube using careful pipetting. Protein in each fraction was assayed by micro BCA assay method (Pierce, Rockford Ill.). Cholesterol was assayed using an Amplex Red cholesterol assay kit (Molecular Probes). Alkaline phosphatase was assayed using p-nitrophenyl phosphate as substrate. […] No detergents were used in raft preparation.

In the case of `COC[C@@H]([C@H](O)[C@H](O)C(=O)NCC[C@H](C)c1nc(/C=C/C[C@@H]2O[C@]3(C[C@@H](O)[C@@H]2C)O[C@H]([C@H](C[C@H](O)[C@H](C)[C@H](O)[C@H](C)/C=C(C)/C(C)=C/C=C/C(C)=C\C#N)OC)[C@H](OP(=O)(O)O)C3(C)C)co1)N(C)C` [CalyA, Calyculin A], the “effect on cholesterol mediated Ca2+ influx (actin reorganization)” value in the assay on human neutrophils (PMN) was “abolished”.
The same measure, in the same setting: the value for `C=C1[C@@H](C)[C@H]2[C@H](Cc3ccccc3)NC(=O)[C@]23[C@H](OC(C)=O)/C=C/[C@@](C)(O)C(=O)[C@@H](C)C/C=C/[C@H]3[C@@H]1O` [CytoD, Cytochalasin D] was “reversed the inhibition”.
Consider `[La+3]` [La^3+, lanthanum], for which the “inhibition of cholesterol mediated PMN Ca2+ influx by lanthanum” value with human neutrophils (PMN) (1 mM) is “inhibited; also recorded: almost totally inhibits”.
As for `CCCCCCCCCCCCC/C=C/[C@@H](O)[C@@H](N)COP(=O)(O)O` [S1P, sphingosine 1-phosphate, reference compound], the “reversal of SKI-2 inhibition of SOCE by exogenous S1P” value in the assay with PMN [1] (5 M S1P, 30 μM SKI-2) is “totally reversed; also recorded: reverses 30 μM SKI-2 inhibition”. For the same compound, the figures for the “ratio of cholesterol to protein / cholesterol concentration in the lowest density raft fractions” value with PMN lipid raft fractions and in the assay with PMN lipid raft fractions (listed as SIP) were “increases in cholesterol concentration” and “even greater increases in cholesterol concentration”, respectively. Further, in the assay with PMN [2] (S1P 5 uM after SKI-2 30 uM), the “rescue of RB after SKI-2 inhibition” value is recorded as “rescue of RB”. In addition, the “restoration of RB by S1P after MβCD cholesterol depletion” value in the assay on PMN [2] (n=4-6) was “restored RB to control levels”.
For orientation: pIC50 means the negative decadic logarithm of the IC50, by convention in mol/L. As for `COc1ccc(CCCOC(Cn2ccnc2)c2ccc(OC)cc2)cc1` (centres unmarked) [SKF96365], in the assay on human neutrophils (PMN) (Neutrophil, human PMN, 3-4 experiments per condition, read-out: IC50 for block of cholesterol-mediated PMN calcium entry), the pIC50 is approximately 4.52. Further, the “effect of calcium channel blocker on cholesterol-mediated PMN calcium entry” value in the assay on human neutrophils (PMN) (human PMN) was “inhibited”; in the assay with human neutrophils (PMN) (human PMN, listed as SKF), “quantitatively inhibited”.
Consider `Oc1ccc(Nc2nc(-c3ccc(Cl)cc3)cs2)cc1` [SKI-2], for which, in the assay with PMN [1] (fMLP 100 nM, Tg 1 uM), the “effect on SOCE initiated by fMLP and Tg” value is given as “inhibited; also recorded: suppressing SOCE”. Moreover, in the assay on PMN [2] (30 uM, n=4), the “effect of SphK inhibition on fMLP/Tg induced RB” value is reported as “blocked fMLP/Tg induced RB down to background levels”.
For the compound `CC(C)CCC[C@@H](C)[C@H]1CC[C@H]2[C@@H]3CC=C4C[C@@H](O)CC[C@]4(C)[C@H]3CC[C@]12C` [cholesterol], the “effect on fMLP-linked Ca2+ entry responses” value with PMN [3] is “augmented”. Also, in the assay with PMN [3] (very high cholesterol concentrations), the “effect of very high cholesterol concentrations on fMLP-mediated Ca2+ entry” value was “suppressed calcium entry”. Further, in the assay with PMN [4], the “reversal of MβCD inhibition of TG Ca2+ entry by cholesterol re-addition” value was “immediately reversed and even overcome”. Also, the “effect on release of Ca2+ from cell stores (PAF)” value in the assay on human PMN (PAF 100 nM) was “no effect upon Ca^2+ store mobilization”. Moreover, the “effect of cholesterol present in cuvette on PAF Ca2+ entry in normal cells” value in the assay on human PMN (normal PMN, brief exposure) was “increased Ca^2+ entry”. Moreover, the “rescue of PAF Ca2+ entry by cholesterol after MβCD” value in the assay with human PMN (small amounts of cholesterol (3 ug/ml final)) was “rescued Ca^2+entry”. Also, the “global TRPC1 protein expression in whole cell lysates” value in the assay on TRPC1 is “No differences in global TRPC1 protein expression”. The “TRPC1 protein in membrane lipid raft fractions” value in the assay on TRPC1 (pre-incubation in 10 μg/mL cholesterol) is recorded as “increases the amount of TRPC1 protein; also recorded: redistribution of the TRPC1 signal from higher density fractions into the raft fractions”. The “effect of cholesterol concentrations above 10 μg/mL on PMN Ca2+ uptake” value in the assay on human neutrophils (PMN) (above 10 μg/mL, direct stimulation and combination with S1P) was “suppress PMN Ca^2+ uptake”. Further, in the assay with human neutrophils (PMN) (cholesterol 3 ug/ml final), the “direct calcium entry caused by cholesterol at re-addition dose” value is given as “does not itself cause calcium entry”. Besides, the “direct effect of cholesterol on calcium entry into human PMN” value in the assay with human neutrophils (PMN) (free cholesterol, albumin-free media) was “caused Ca entry without any antecedent release of calcium stores; also recorded: potent, dose-dependent activator; also recorded: direct dose-related response”. In the assay on PMN lipid rafts (GM-1), the “membrane GM-1 binding and raft coalescence” value is “increased membrane GM-1 available for binding”. The “effect of cholesterol on patient PMN calcium entry response to S1P” value with PMN [5] (injured patients' PMN, cholesterol 30 ug/ml, n=8 PMN isolates) is listed as “restored to healthy volunteer levels; also recorded: exceed basal levels”. The “reversal of MβCD effect on S1P calcium entry by cholesterol replenishment” value with PMN [5] (n=3) is recorded as “reversible; also recorded: reversal of the MβCD effect”. Moreover, in the assay with PMN lipid raft fractions, the “ratio of cholesterol to protein / cholesterol concentration in the lowest density raft fractions” value was “more than doubles” and the “change of cholesterol in raft fractions versus higher density fractions” value is on record as “incorporated preferentially into the low density fractions”. Besides, the “rescue of RB by cholesterol in MBCD treated neutrophils” value in the assay on PMN [2] (cholesterol 30 ug/ml) is “rescued RB from MβCD inhibition; also recorded: significantly rescued that RB”. In the assay with PMN [2] (setting [6]), the “external cholesterol concentration yielding optimal PMN oxidant production” value worked out at 10 µg/mL and the “external cholesterol concentration yielding optimal PMN oxidant production (molar)” value was approximately 25 µM. In addition, the “effect of increasing (high) cholesterol concentrations on RB” value in the assay on PMN [2] (pre-incubation, higher concentrations (FIG. 21B columns 6-7)) is given as “decreased the degree of respiratory burst”. For the same compound, the “effect of lower cholesterol concentrations on RB” value with PMN [2] (pre-incubation, lower concentrations (FIG. 21B columns 3-5)) is recorded as “dose-dependent augmentation of RB”.
Turning to `COc1ccc(CCN(C)CCCC(C#N)(c2ccc(OC)c(OC)c2)C(C)C)cc1OC` (centres unmarked) [verapamil], the “effect of calcium channel blocker on cholesterol-mediated PMN calcium entry” value in the assay on human neutrophils (PMN) (human PMN) is listed as “not inhibited; also recorded: no effect”; with human neutrophils (PMN) (human PMN, listed as VER) it was “no effect at any concentration”.
For methyl-β cyclodextrin [MβCD], the “effect on fMLP-linked Ca2+ entry responses” value in the assay on PMN [3] was “suppressed”. For the same compound, the “effect on TG initiated Ca2+ entry” value in the assay on PMN [4] is given as “markedly inhibited”. In addition, the “effect on release of Ca2+ from cell stores (PAF)” value in the assay with human PMN (PAF 100 nM) is on record as “no effect whatsoever”. Moreover, the “effect on PAF-initiated Ca2+ entry after cholesterol sequestration” value in the assay with human PMN (PAF 100 nM, MBCD 10 mM 10 minutes) is listed as “blocked”. The “global TRPC1 protein expression in whole cell lysates” value with TRPC1 is recorded as “No differences in global TRPC1 protein expression”. Also, the “effect of MβCD on patient PMN Ca2+ entry responses to S1P” value in the assay on PMN [5] (injured patients' PMN) was “further suppressed”. For the same compound, the “effect of raft disruption on PMN calcium entry responses to S1P” value is “completely blocks calcium entry” in the assay with PMN [5] (n=3) and “completely blocked” in the assay on PMN [5] (n=3, listed as MBCD). In addition, the “change of cholesterol in raft fractions versus higher density fractions” value in the assay on PMN lipid raft fractions is “removed cholesterol from raft fractions”. For the same compound, the results for the “effect of cholesterol depletion on fMLP/Tg RB” value in the assay with PMN [2] and in the assay on PMN [2] (listed as MBCD) were “inhibited RB; also recorded: clear suppression of RB; also recorded: markedly suppressed RB responses” and “blocks RB; also recorded: attenuated”, respectively.
